What follows are substances tested on CD8+ T cells (assay: In vitro immunogenicity: T-cell priming with artificial APCs loaded with peptide/MHC and anti-CD28, pMHC multimer readout). Conditions: Table 10A; HLA class I peptides.
Assay type: cell-based, human
Source text: In order to obtain information regarding the immunogenicity of the TUMAPs of the present invention, the inventors performed investigations using an in vitro T-cell priming assay based on repeated stimulations of CD8+ T cells with artificial antigen presenting cells (aAPCs) loaded with peptide/MHC complexes and anti-CD28 antibody.
In order to perform in vitro stimulations by artificial antigen presenting cells loaded with peptide-MHC complex (pMHC) and anti-CD28 antibody, the inventors first isolated CD8+ T cells from fresh HLA-A*02 leukapheresis products via positive selection using CD8 microbeads (Miltenyi Biotec, Bergisch-Gladbach, Germany) of healthy donors obtained from the University clinics Mannheim, Germany, after informed consent.
PBMCs and isolated CD8+ lymphocytes were incubated in T-cell medium (TCM) until use consisting of RPMI-Glutamax (Invitrogen, Karlsruhe, Germany) supplemented with 10% heat inactivated human AB serum (PAN-Biotech, Aidenbach, Germany), 100 U/ml Penicillin/100 μg/ml Streptomycin (Cambrex, Cologne, Germany), 1 mM sodium pyruvate (CC Pro, Oberdorla, Germany), 20 μg/ml Gentamycin (Cambrex). 2.5 ng/ml IL-7 (PromoCell, Heidelberg, Germany) and 10 U/ml IL-2 (Novartis Pharma, Nürnberg, Germany) were also added to the TCM at this step.
Generation of pMHC/anti-CD28 coated beads, T-cell stimulations and readout was performed in a highly defined in vitro system using four different pMHC molecules per stimulation condition and 8 different pMHC molecules per readout condition.
The purified co-stimulatory mouse IgG2a anti human CD28 Ab 9.3 (Jung et al., 1987) was chemically biotinylated using Sulfo-N-hydroxysuccinimidobiotin as recommended by the manufacturer (Perbio, Bonn, Germany). Beads used were 5.6 μm diameter streptavidin coated polystyrene particles (Bangs Laboratories, Illinois, USA).
800.000 beads/200 μl were coated in 96-well plates in the presence of 4×12.5 ng different biotin-pMHC, washed and 600 ng biotin anti-CD28 were added subsequently in a volume of 200 μl. Stimulations were initiated in 96-well plates by co-incubating 1×10^6 CD8+ T cells with 2×10^5 washed coated beads in 200 μl TCM supplemented with 5 ng/ml IL-12 (PromoCell) for 3 days at 37° C. Half of the medium was then exchanged by fresh TCM supplemented with 80 U/ml IL-2 and incubating was continued for 4 days at 37° C. This stimulation cycle was performed for a total of three times. For the pMHC multimer readout using 8 different pMHC molecules per condition, a two-dimensional combinatorial coding approach was used as previously described (Andersen et al., 2012) with minor modifications encompassing coupling to 5 different fluorochromes. Finally, multimeric analyses were performed by staining the cells with Live/dead near IR dye (Invitrogen, Karlsruhe, Germany), CD8-FITC antibody clone SK1 (BD, Heidelberg, Germany) and fluorescent pMHC multimers. For analysis, a BD LSRII SORP cytometer equipped with appropriate lasers and filters was used. Peptide specific cells were calculated as percentage of total CD8+ cells. Evaluation of multimeric analysis was done using the FlowJo software (Tree Star, Oregon, USA). In vitro priming of specific multimer+CD8+ lymphocytes was detected by comparing to negative control stimulations.

| Substance | Donors (in vitro immunogenicity) | Wells (in vitro immunogenicity) |
| --- | --- | --- |
| 271 (SLVQRVETI; listed as Homo sapiens) [compound 271] | ++ (20%-49% = ++) | + (<20% = +) |
| 277 (KTASINQNV; listed as Homo sapiens) [compound 277] | ++++ (≥70% = ++++) | +++ (50%-69% = +++) |
| 278 (SLITGQDLLSV; listed as Homo sapiens) [compound 278] | ++++ (≥70% = ++++) | + (<20% = +) |
| 283 (YTFSGDVQL; listed as Homo sapiens) [compound 283] | ++++ (≥70% = ++++) | + (<20% = +) |
| 287 (KISDFGLATV; listed as Homo sapiens) [compound 287] | ++++ (≥70% = ++++) | ++ (20%-49% = ++) |
| 292 (ALGDKFLLRV; listed as Homo sapiens) [compound 292] | ++++ (≥70% = ++++) | + (<20% = +) |
| 294 (FLLAEDTKV; listed as Homo sapiens) [compound 294] | ++++ (≥70% = ++++) | ++ (20%-49% = ++) |
| 298 (KLQEEIPVL; listed as Homo sapiens) [compound 298] | ++++ (≥70% = ++++) | + (<20% = +) |
| 308 (KLLSDPNYGV; listed as Homo sapiens) [compound 308] | ++++ (≥70% = ++++) | + (<20% = +) |
| 310 (ALASVIKEL; listed as Homo sapiens) [compound 310] | ++ (20%-49% = ++) | + (<20% = +) |
| 315 (KLSWDLIYL; listed as Homo sapiens) [compound 315] | ++++ (≥70% = ++++) | ++ (20%-49% = ++) |
| 318 (SIIEYLPTL; listed as Homo sapiens) [compound 318] | ++++ (≥70% = ++++) | + (<20% = +) |
| 320 (KIIGIMEEV; listed as Homo sapiens) [compound 320] | ++++ (≥70% = ++++) | ++++ (≥70% = ++++) |
| 321 (YLPTFFLTV; listed as Homo sapiens) [compound 321] | +++ (50%-69% = +++) | ++ (20%-49% = ++) |
| 322 (SLHFLILYV; listed as Homo sapiens) [compound 322] | +++ (50%-69% = +++) | ++ (20%-49% = ++) |
| 323 (VVDKTLLLV; listed as Homo sapiens) [compound 323] | ++++ (≥70% = ++++) | +++ (50%-69% = +++) |
| 326 (ALSGTLSGV; listed as Homo sapiens) [compound 326] | ++++ (≥70% = ++++) | + (<20% = +) |
| 328 (SLSQELVGV; listed as Homo sapiens) [compound 328] | ++ (20%-49% = ++) | + (<20% = +) |
| 332 (AVVEFLTSV; listed as Homo sapiens) [compound 332] | ++ (20%-49% = ++) | + (<20% = +) |
